The results in this text go back to US20060193925A1, “Side effect-relieving agents and/or hypoglycemic effect enhancers for thiazolidine compounds” (KANEBO, LIMITED, priority 2001, published 2006).

Each structure is given as a SMILES string. Structures can show the parent of a compound that is named as a salt.

Holding throughout (assay type): in vivo
Assay [1] can be described thus: Test Example 3: body weight gain inhibiting effect. The conditions noted are these: KKA^y mice, 7/group, in powder diet, pioglitazone 5 mg/kg/day, extract powder of Preparation Example 2 6.4 g/kg/day. The method, then:
(§1) Divided into groups of 7 mice, 7-week old KKA^y mice which were genetically obese diabetic animals were used, and the tests were carried out in the same manner as in Test Example 1, except Group (c) and (d) were given the extract powder of Preparation Example 2, and pioglitazone and the extract powder of Preparation Example 2, respectively, for 4 weeks by preparing the powder diet so that the daily dose each therein was of the values shown in Table 4.
The results were evaluated in the same manner as in Test Example 1.

Assay [2] has as its system KKA^y mice. The experiment in a line: Test Example 4: hypoglycemic effect (blood glucose level in serum). Conditions: in powder diet, pioglitazone 5 mg/kg/day, extract powder of Preparation Example 2 6.4 g/kg/day. On the procedure:
as §1
The test was carried out in the same manner as in Test Example 3. The blood was collected 1 week and 4 weeks after commencement of the administration, and the serum was separated to measure the blood glucose levels.
The results were evaluated in the same manner as in Test Example 2.

Assay [3] is described as follows: Test Example 1: body weight gain inhibiting effect. Conditions: KKA^y mice, 8/group, in powder diet, pioglitazone 5 mg/kg/day, extract powder of Preparation Example 1 1.5 g/kg/day. From the text: (§2) Divided into groups of 8 mice, 7-week old KKA^y mice which were genetically obese diabetic animals were used. Group (a) was fed only on a powder diet (CE-2, produced by Clea Japan, Inc.) for 5 weeks, and Group (b), Group (c) and Group (d) were given pioglitazone, the extract powder of Preparation Example 1, and pioglitazone and the extract powder of Preparation Example 1, respectively, for 5 weeks by preparing a powder diet so that the daily dose of each therein was of the values shown in Table 1. During the period of the test, body weights were measured, and the formulation of the diet were adjusted in accordance with an increase or decrease in body weight to keep the doses per day in Group (b) and Group (d) constant.
The results were evaluated by comparing the body weight gain observed in each of Groups (a), (b), (c) and (d) (Student's t-test).

For assay [4], the system named is KKA^y mice. The experiment in a line: Test Example 2: hypoglycemic effect (blood glucose level in serum). Conditions: in powder diet, pioglitazone 5 mg/kg/day, extract powder of Preparation Example 1 1.5 g/kg/day.
Description: as §2
Tests were carried out in the same manner as in Test Example 1. The blood was collected 1 week and 5 weeks after commencement of the administration, and the serum was separated to measure the blood glucose levels.

As to `CCc1ccc(CCOc2ccc(CC3SC(=O)NC3=O)cc2)nc1` (centres unmarked) [Pioglitazone, pioglitazone hydrochloride], the “Body weight gain, 1 week after administration” value is given as 5.3 ± 0.4 g in assay [1] (1 week) and 5.2 ± 0.2 g in assay [3] (1 week). The “Body weight gain, 4 weeks after administration” value in assay [1] (4 weeks) is on record as 10.7 ± 0.5 g. The “Blood glucose level, 1 week after the administration” value came out at 320 ± 30 mg/dL in the assay with KKA^y mice [2] (1 week) and 404 ± 28 mg/dL in the assay with KKA^y mice [4] (1 week). Besides, in the assay on KKA^y mice [2] (4 weeks), the “Blood glucose level, 4 weeks after the administration” value was 587 ± 24 NS mg/dl. Moreover, in assay [3] (5 weeks), the “Body weight gain, 5 weeks after administration” value is reported as 11.8 ± 0.6 g. Besides, the “Blood glucose level, 5 weeks after the administration” value in the assay with KKA^y mice [4] (5 weeks) came out at 527 ± 18 NS mg/dl.
